In patent publication US20060293216A1, “Pharmaceutical compositions comprising an active agent and chitosan for sustained drug release or mucoadhesion” (ADVANCED BIOPOLYMERS AS, priority 2003, published 2006):

Assays:
Format in all cases: physicochemical
[1] = Release of acetylsalicylic acid from chitosan (dialysis, UV); settings: acetylsalicylic acid 100 mg, chitosan 250 mg, against tris buffer pH7
Experimental: Acetylsalicylic acid (100 mg) and chitosan (various degrees of acetylation) (250 mg) were added to a diluted aqueous HCl solution at pH 2 (10 ml). The mixture was stirred for 30 minutes at 80° C., cooled to room temperature, transferred to a dialysis tube (cut off 12-14 kDa) and dialysed against tris buffer pH7 (100 ml). The amount of acetylsalicylic acid in the dialysate was determined by UV.
(§1) An experiment without chitosan was performed as a comparison.
The amounts of acetylsalicylic acid in dialysate are shown in Table 1 as a percentage of maximum detected amounts.

[2] = Release of warfarin from warfarin/chitosan (dialysis, UV 293 nm); settings: buffered solution pH 7.4
Experimental: The salt of warfarin/chitosan (from Example 7 above) (1.09 g) was suspended in a buffered solution with pH 7.4 (10 ml). The suspension was transferred into the dialysis tube (cut off 12-14 kDa) before the tube was transferred into a buffered solution of pH 7.4 (100 ml) under continuous stirring. 2 ml samples of the dialysate were taken at different times and the UV-absorbances measured with an UV-apparatus at 293 nm. As a control experiment, warfarin (0.38 g, 1.2 mmol) was dissolved in a buffered solution of pH 7.4 (10 ml) and transferred into the dialysis tube (cut off 12-14 kDa). 2 ml samples of the dialysate were taken at different times and the UV-absorbances measured with an UV-apparatus at 293 nm. The amounts of warfarin in dialysate are shown in Table 3 as a percentage of maximum detected amounts.

[3] = Effect of chitosan on availability of norfloxacin (dialysis, UV); settings: norfloxacin 100 mg, against tris buffer pH 7
Experimental: Norfloxacin (100 mg) and chitosan (FA=0.35, η=1250) (250 mg) were added to a diluted aqueous HCl solution pH 2 (10 ml). The mixture was stirred for 2 hours at 80° C., cooled to room temperature and dialysed against tris buffer pH 7 (100 ml). The amount of norfloxacin in dialysate was determined by UV.
as §1
The amounts of norfloxacin in dialysate are shown as a percentage of maximum detected amounts.

[4] = Release of paracetamol through a dialysis membrane with and without chitosan; settings: 10 mM paracetamol in 154 mM NaCl, pH 4.5; 3 (w/v)% chitosan (FA 0.41, hydrochloride salt); followed for 2 days; FIG. 1
Experimental: The chitosan used in this Example was prepared from a chitosan produced as described in WO 03/011912 (FA 0.41, [η]=1060 ml/g), which was depolymerized and at the same time converted to the chitosan hydrochloride salt using 3M ethanolic HCl. Excess ethanolic chitosan was removed, the chitosan washed with excess 70% ethanol, 96% ethanol and finally dried to obtain the chitosan hydrochloride salt. The intrinsic viscosity was determined to 200 ml/g, corresponding to a number-average molecular weight of 40 000 (Anthonsen et al., 1993, Carbohydr. Polym. (1993) 22 193-201). 10 mM Paracetamol was dissolved in 154 mM NaCl at pH 4.5. Each of the solutions containing salicylate or paracetamol was added to a small glass vial (10 ml) equipped with a dialysis membrane (d=14.3 mm, cut off 10-12 kDa). The glass vials were placed in a 1 litre reservoir containing 154 mM NaCl, pH 4.5. Samples of 3.0 ml were regularly withdrawn from the reservoir and the absorbance was measured at 297.0 nm (salicylic acid) and 243.3 nm (paracetamol). Each experiment was run with 6 parallels. The same experiment was performed with paracetamol and the salicylate solutions to which had been added 3 (w/v)% of the chitosan. […] No difference in the release profile of the neutral drug paracetamol with and without chitosan could be detected.

[5] = Release of salicylate through a dialysis membrane with and without chitosan; settings: 30 mM salicylate in 154 mM NaCl, pH 4.5; 3 (w/v)% chitosan (FA 0.41, hydrochloride salt); FIG. 2
Experimental: The chitosan used in this Example was prepared from a chitosan produced as described in WO 03/011912 (FA 0.41, [η]=1060 ml/g), which was depolymerized and at the same time converted to the chitosan hydrochloride salt using 3M ethanolic HCl. Excess ethanolic chitosan was removed, the chitosan washed with excess 70% ethanol, 96% ethanol and finally dried to obtain the chitosan hydrochloride salt. The intrinsic viscosity was determined to 200 ml/g, corresponding to a number-average molecular weight of 40 000 (Anthonsen et al., 1993, Carbohydr. Polym. (1993) 22 193-201). 30 mM Salicylic acid was dissolved in distilled water upon addition of equimolar amounts of sodium hydroxide, and sodium chloride was added to a final concentration of 154 mM. The pH was adjusted to 4.5. Each of the solutions containing salicylate or paracetamol was added to a small glass vial (10 ml) equipped with a dialysis membrane (d=14.3 mm, cut off 10-12 kDa). The glass vials were placed in a 1 litre reservoir containing 154 mM NaCl, pH 4.5. Samples of 3.0 ml were regularly withdrawn from the reservoir and the absorbance was measured at 297.0 nm (salicylic acid) and 243.3 nm (paracetamol). Each experiment was run with 6 parallels. The same experiment was performed with paracetamol and the salicylate solutions to which had been added 3 (w/v)% of the chitosan. […]

Which results are given for `CC(=O)Oc1ccccc1C(=O)O` [No chitosan, Acetylsalicylic acid]?
amount of acetylsalicylic acid in dialysate ([1]; time for dialysis 0.25 hours): 52 percentage of maximum detected amounts; amount of acetylsalicylic acid in dialysate ([1]; time for dialysis 0.5 hours): 87 percentage of maximum detected amounts; amount of acetylsalicylic acid in dialysate ([1]; time for dialysis 1 hour): 97 percentage of maximum detected amounts; amount of acetylsalicylic acid in dialysate ([1]; time for dialysis 2 hours): 98 percentage of maximum detected amounts; amount of acetylsalicylic acid in dialysate ([1]; time for dialysis 19 hours): 99 percentage of maximum detected amounts

Which “amount of warfarin in dialysate” value ([2]; time 2½ hours) does the source give for `CC(=O)CC(c1ccccc1)c1c(O)c2ccccc2oc1=O` (stereo not shown) [Warfarin] here?
Its value is 49.8 percentage of maximum detected amounts.

What about the “amount of warfarin in dialysate” value ([2]; time 4 hours) of the same molecule?
Its value is 49.0 percentage of maximum detected amounts.

And the “amount of warfarin in dialysate” value ([2]; time 20 hours)?
The value was 100 percentage of maximum detected amounts.

And the “amount of warfarin in dialysate” value ([2]; time ½ hours)?
Its value is 14.8 percentage of maximum detected amounts.

For `CCn1cc(C(=O)O)c(=O)c2cc(F)c(N3CCNCC3)cc21` [Without chitosan, Norfloxacin], which “amount of norfloxacin in dialysate” value ([3]; time for dialysis 0.25 hours) is on record?
Its value is 66 percentage of maximum detected amounts.

What about the “amount of norfloxacin in dialysate” value ([3]; time for dialysis 0.5 hours) of the same molecule?
The value was 72 percentage of maximum detected amounts.

What about the “amount of norfloxacin in dialysate” value ([3]; time for dialysis 1 hour) of the same molecule?
Its value is 100 percentage of maximum detected amounts.

What about the “amount of norfloxacin in dialysate” value ([3]; time for dialysis 2 hours) of the same molecule?
The value was 100 percentage of maximum detected amounts.

And the “amount of norfloxacin in dialysate” value ([3]; time for dialysis 4 hours)?
Its value is 100 percentage of maximum detected amounts.

With `CC(=O)Nc1ccc(O)cc1` [paracetamol, Paracetamol] as the molecule, how does the “release profile of paracetamol with and without chitosan” value [4] read?
Its value is “No difference”.

With `O=C(O)c1ccccc1O` [salicylate, Salicylic acid] as the molecule, how does the “release of salicylate with and without chitosan” value [5] read?
Its value is “clear difference”.
